Data reported in patent US8956824B2, “Methods for identifying allosteric modulators of ship polypeptides” (British Columbia Cancer Agency Branch, priority 2006, dated 2015).
“Also recorded” adds a separate entry of the source.

Legend:
[1] = system: LPS-induced plasma TNFα; assay: Mouse septicemia model; format: in vivo; conditions: for plasma TNFα level after LPS challenge: oral, 30 min prior to IP 2 mg/kg LPS, blood 2 h later, AQX-016A 20 mg/kg
From the text: Mouse septicemia model. […] Blood was drawn 2 hrs later for determination of plasma TNFα by ELISA. Results are representative of 3 independent experiments.

[2] = system: SHIP1+/+ and SHIP1−/− BMmφs; assay: LPS-stimulated TNFα production in BMmφs; format: cell-based, mouse; conditions: 30 min pretreatment, 10 ng/mL LPS, ELISA
Method: Production of SHIP+/+ and SHIP-/- BMMCs and BMnφs. […] LPS stimulation of BMmφs. For the analysis of LPS-stimulated TNFα production, 2 ×10^5 cells were plated the night before in 24 well plates in BMmφp medium. […] Data are expressed as the mean +/- SEM of triplicates and experiments were repeated 3 times. For analysis of intracellular signaling, 2×10^6 cells were plated the night before in 6 cm tissue culture plates. […] Cells were washed with 4° C. PBS and resuspended in lysis buffer (50 mM Hepes, 2 mM EDTA, 1mM NaVO4 , 100 mM NaF, 50 mM NaPPi and 1%NP4O) supplemented with COMPLETETM Protease Inhibitor Cocktail (Roche, Montreal, Canada). Lysates were rocked at 4° C. for 30 min and clarified by centrifuging 20 min at 12000×g. Lysates were then made 1× in Laemmli's buffer, boiled 2 min and loaded onto 7.5% SDS polyacrylamide […]. Immunoblot analysis for phospho PKB (Cell Signalling, Mississauga, Ont), SHIP1 and actin (Santa Cruz, Santa Cruz, Calif.) were carried out as described previously (18). Results are representative of 3 independent experiments.

[3] = target: T1, PH domain deleted SHIP1 (Mus musculus, UniProt Q9ES52, DEL292-400/E403A/P402A/Q401A); assay: In vitro SHIP enzyme assay, PH domain deleted SHIP1; format: biochemical; conditions: FIG. 10, FIG. 14A
T1 construct: Full length, wild-type SHIP1 enzyme (wt) or SHIP1 enzyme in which the PH or C2 domains were deleted; His6 (N); made in house; 293T cells are stated only for the wild-type enzyme
T1 sequence (Q9ES52 with tags, fused parts or gaps DEL292-400/Q401A/P402A/E403A): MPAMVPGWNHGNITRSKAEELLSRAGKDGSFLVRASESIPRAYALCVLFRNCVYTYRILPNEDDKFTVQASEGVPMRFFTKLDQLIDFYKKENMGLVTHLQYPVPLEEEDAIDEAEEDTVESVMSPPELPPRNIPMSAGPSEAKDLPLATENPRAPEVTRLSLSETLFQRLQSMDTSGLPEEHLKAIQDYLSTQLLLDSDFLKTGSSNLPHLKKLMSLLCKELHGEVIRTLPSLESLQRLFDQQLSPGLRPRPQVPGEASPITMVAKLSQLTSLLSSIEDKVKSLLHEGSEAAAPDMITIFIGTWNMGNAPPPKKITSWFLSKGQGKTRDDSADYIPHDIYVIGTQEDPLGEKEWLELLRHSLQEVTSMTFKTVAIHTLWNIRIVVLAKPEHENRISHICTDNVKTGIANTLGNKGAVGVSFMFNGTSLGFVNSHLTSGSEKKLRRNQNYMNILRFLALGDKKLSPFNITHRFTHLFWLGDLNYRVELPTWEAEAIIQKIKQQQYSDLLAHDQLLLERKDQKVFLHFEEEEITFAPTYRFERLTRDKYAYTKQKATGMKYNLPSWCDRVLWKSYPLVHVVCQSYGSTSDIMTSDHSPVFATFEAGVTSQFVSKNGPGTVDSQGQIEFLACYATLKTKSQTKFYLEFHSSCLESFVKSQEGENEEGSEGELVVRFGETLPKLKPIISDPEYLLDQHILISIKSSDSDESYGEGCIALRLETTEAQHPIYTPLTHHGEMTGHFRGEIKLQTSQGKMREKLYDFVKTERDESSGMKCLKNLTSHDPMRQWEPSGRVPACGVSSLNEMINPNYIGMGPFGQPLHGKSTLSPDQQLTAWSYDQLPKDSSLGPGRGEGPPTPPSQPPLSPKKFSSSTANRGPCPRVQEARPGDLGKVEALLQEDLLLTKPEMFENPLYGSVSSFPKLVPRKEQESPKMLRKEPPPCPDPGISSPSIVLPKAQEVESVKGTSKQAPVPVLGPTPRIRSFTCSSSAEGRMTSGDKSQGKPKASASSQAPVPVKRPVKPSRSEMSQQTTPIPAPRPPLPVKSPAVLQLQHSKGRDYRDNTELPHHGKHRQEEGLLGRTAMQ
From the text: The SHIP1 PH domain deletion mutant and an isolated PH domain construct were generated using techniques similar to those used for the C2 domain. More specifically, the PH domain (amino acids 984-1319) was deleted from the murine SHIP (mSHIP) cDNA as follows: using pME18S-mSHIP1 as a template, a 527 by PCR fragment (“Upstream Fragment”) was generated using the indicated primers to generate a fragment corresponding to sequence immediately upstream of the SHIP PH domain within which resides a unique AccI restriction cut site. A Nod restriction cut site was also introduced to the 3′ end of this fragment. The PCR product was digested with Acd and Nod, and gel purified. Using pME18S-mSHIP1 as a template, a 776 by PCR fragment (“Downstream Fragment”) was generated using the indicated primers corresponding to sequence immediately downstream of the SHIP PH domain within which resides a unique ClaI restriction cut site. A Nod restriction cut site was introduced to the 5′ end of this fragment. […]
In vitro SHIP enzyme assay. […] The reaction was allowed to proceed for 20 min at 37° C. and the amount of inorganic phosphate released assessed by the addition of Malachite Green reagent followed by an absorbance measurement at 650 nm (15). […] Enzyme data are expressed as the mean of triplicates+/−SEM. […]

Q: Which bioavailability ([1]; concluded from septicemia (oral) and cutaneous anaphylaxis (topical) models) does the source give for Cc1cc(O)c(O)c2c1[C@]1(C)CC[C@H]3C(C)(C)CCC[C@]3(C)[C@H]1C2 [AQX-016A] here?
A: Its bioavailability is “both orally and topically bioavailable”.

Q: And the “plasma TNFα level after LPS challenge” value [1]?
A: The value was “reduced the level of TNFα to the same extent as the control”.

Q: What about the “LPS-stimulated TNFα production, SHIP1+/+ vs SHIP1−/− macrophages” value [2] of the same compound?
A: The value was “preferentially inhibited LPS-stimulated TNFα production in SHIP1+/+ than in SHIP1−/−”.

Q: With Cc1cc(O)cc2c1[C@]1(C)CC[C@H]3C(C)(C)CCC[C@]3(C)[C@H]1C2 [AQX-MN100] as the compound, how does the “plasma TNFα level after LPS challenge” value [1] read?
A: Its value is “efficiently inhibited the LPS-induced elevation of plasma TNFα levels; also recorded: inhibits LPS-induced plasma TNFα levels in mice”.

Q: And the “LPS-stimulated TNFα production, SHIP1+/+ vs SHIP1−/− macrophages” value [2]?
A: The value was “selectively inhibited TNFα production from SHIP1+/+ but not SHIP1−/− macrophages; also recorded: inhibits TNFα production from LPS stimulated SHIP1+/+ but not −/− BMmφs”.

Q: What about the “activation of SHIP1 with PH domain deleted” value [3] of the same compound?
A: Its value is “attenuates but does not prevent activation; also recorded: abrogates ability of SHIP to be activated”.

Q: How did the “activation of SHIP1 with PH domain deleted” value [3] turn out when “phosphatidylinositol-3,4-bisphosphate [PI-3,4-P2, reference compound]” was run?
A: The value was “abrogates ability of SHIP to be activated”.
